These compounds were tested against TNFα trimer (Homo sapiens, UniProt P01375) (assay: TNFα FP Competitive Binding Assay). Conditions: FP binding assay; 20 nM TNFα trimer, 1 nM OregonGreen488 probe; read-out: TNF IC50.
Experimental: TNFα FP Competitive Binding Assay
• 1. Assay Buffer: Prepare 1× Assay Buffer (Water with 47 mM HEPES, 47 mM NaCl, 0.9 mM EDTA, 0.0071% Triton X-100) by adding 25 mL of 1 M HEPES, 5 mL of 5 M NaCl, 1 mL of 0.5 M EDTA, and 375 μL of a 10% Triton X-100 stock to a fresh 500 mL bottle of water. • 2. Assay Mixture: Prepare fresh Assay Mixture containing 20 nM TNFα trimer (60 nM protein) and 1 nM 2′,7′-difluoro-3′,6′-dihydroxy-N-(2-(2-(2-((4-(isoquinolin-8-yl)-3-(4-(isoquinolin-8-yl)phenethoxy)benzyl)oxy)ethoxy)ethoxy)ethyl)-3-oxo-3H-spiro[isobenzofuran-1,9′-xanthene]-5-carboxamide probe in 1× Assay Buffer. Compound Plate Preparation Manual 12-Point 1:3 Dilution Plates: (384 Well Polypropylene Plates)
Top concentration of compounds, 10 mM in DMSO, dispensed in rows A-O in columns 1 and 13. Compounds are serially diluted 1:3 with DMSO in columns 2-12 or 14-24 using a 16-channel Matrix pipettor. Plates stored at −20° C.
Discovery Preps 12-Point 1:3 Dilution Plates: (384 Well Assay Plates)
Top concentration, 5 mM in DMSO, of compounds placed in rows A-O in columns 1 and 13. Compounds are serially diluted 1:3 with DMSO in columns 2-12 or 14-24. Compound solutions are dispensed into replicate assay plates at 410 nL per well. Plates stored at 4° C.
TNFα FP Competitive Binding Assay Protocol
• 1. Compound plates warmed to rt. • 2. Fresh Assay Mixture is prepared. • 3. Assay Mixture (20 μL) is dispensed each well of 384 assay plates using a Thermo Multidrop Combi or 16-channel Matrix pipettor. If Manual 12-point 1:3 Dilution Plates are to be tested, Assay Mix is dispensed into empty plates. Discovery Preps 12-point 1:3 Dilution Plates already contain 410 nL compound solution in DMSO. • 4. For Manual 12-point 1:3 Dilution Plates, 0.7 μL is manually transferred using a 16-channel Matrix pipettor to replicate assay plates containing 20 μL Assay Mixture for a final top compound concentration of 338 μM (3.4% DMSO). • 5. For Discovery Preps 12-point 1:3 Dilution Plates, 20 μL Assay Mixture added the 410 nL compound solution already in the plates yields a final top compound concentration of 100 μM (2.0% DMSO). • 6. Background subtraction controls are wells P1-P8 containing only Assay Buffer. The low % inhibition controls are wells P9-P16 containing only Assay Mix. The high % inhibition are wells P17-P24 containing only 1 nM 2′,7′-difluoro-3′,6′-dihydroxy-N-(2-(2-(2-((4-(isoquinolin-8-yl)-3-(4-(isoquinolin-8-yl)phenethoxy)benzyl)oxy)ethoxy)ethoxy)ethyl)-3-oxo-3H-spiro[isobenzofuran-1,9′-xanthene]-5-carboxamide probe in 1× Assay Buffer. • 7. Plates are incubated at rt for 18-24 h in 37° C. incubator (CO2 is off). • 8. Prior to reading the assay, the plates are placed in a dark cabinet to equilibrate at rt for one hour. • 9. Background-subtracted fluorescence polarization (mP) is measured using a PerkinElmer Envision plate reader. • 10. Raw data is entered into Assay Explorer and dose-response curves are generated using a variable slope curve. Supplies, Materials, and Reagents

Sequence of TNFα trimer (P01375 77-233 limits assumed): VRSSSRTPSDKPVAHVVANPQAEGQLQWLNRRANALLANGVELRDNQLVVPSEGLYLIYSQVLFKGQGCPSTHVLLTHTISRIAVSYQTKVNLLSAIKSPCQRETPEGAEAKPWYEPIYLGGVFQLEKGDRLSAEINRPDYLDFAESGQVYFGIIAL

Compound | IC50
Cc1cccc(Cn2c3cc(-c4cnc(N5CCOCC5)nc4)ccc3c(=O)n2C)c1 [Example 1.9] | 1000 to 10000 nM
Cc1ccc(OC(F)F)c(Cn2c3cc(-c4cnc(N5C[C@@H]6CNC(=O)[C@@H]6C5)nc4)ccc3c(=O)n2C)c1 (racemic) [Example 20.3] | 1000 to 10000 nM
Cn1c(=O)c2ccc(-c3cnc(N4CCOCC4)nc3)cc2n1Cc1ccc(F)cc1 [Example 1.11] | > 10000 nM
Cn1c(=O)c2ccc(-c3cnc(C(C)(C)O)nc3)nc2n1Cc1ccccc1OC(F)F [Example 16, 1-(2-(Difluoromethoxy)benzyl)-6-(2-(2-hydroxypropan-2-yl)pyrimidin-5-yl)-2-methyl-1H-pyrazolo[3,4-b]pyridin-3(2H)-one] | 1000 to 10000 nM
CC(=O)N1CCN(c2ncc(-c3ccc4c(=O)n(C)n(Cc5cc(CC(C)C#N)ccc5OC(F)F)c4c3)cn2)C[C@H]1C (stereo partly shown) [Example 27.4] | 1000 to 10000 nM
Cn1c(=O)c2ccc(-c3cnc(NCC4CNC(=O)C4)nc3)cc2n1Cc1ccccc1OC(F)F (stereo not shown) [Example 2.7] | 1000 to 10000 nM
C[C@@H]1CN(c2ncc(-c3cc4c(cc3C#N)c(=O)n(C)n4Cc3ccccc3OC(F)F)cn2)CCN1C(=O)CO [Example 23.2] | 1000 to 10000 nM
Cn1c(=O)c2ccc(-c3cnc(N4CCOCC4)nc3)cc2n1Cc1cnccc1Cl [Example 1.17] | > 10000 nM
CCn1c(=O)c2ccc(-c3cnc(N4CCOCC4)nc3)cc2n1Cc1ccccc1OC(F)F [Example 10, 1-(2-(Difluoromethoxy)benzyl)-2-ethyl-6-(2-morpholinopyrimidin-5-yl)-1H-indazol-3(2H)-one] | 1000 to 10000 nM
Cn1c(=O)c2ccc(-c3cnc(N4CCOCC4)nc3)cc2n1Cc1c(Cl)cccc1Cl [Example 8.1] | 1000 to 10000 nM
Cn1c(=O)c2ccc(-c3cnc(C4(O)CN(C(=O)CO)C4)nc3)cc2n1Cc1ccccc1OC(F)F [Example 91, 1-(2-(Difluoromethoxy)benzyl)-6-(2-(3-hydroxy-1-(2-hydroxyacetyl)azetidin-3-yl)pyrimidin-5-yl)-2-methyl-1H-indazol-3(2H)-one] | 1000 to 10000 nM
Cn1c(=O)c2ccc(-c3cnc(N4CCC(C(=O)O)CC4)cn3)cc2n1Cc1ccccc1OC(F)F [Example 10.3] | > 10000 nM
Cn1c(=O)c2ccc(-c3ccnc(N4CCOCC4)c3)cc2n1Cc1cccc(F)c1 [Example 11.1] | > 10000 nM
Cn1c(=O)c2ccc(-c3cnc(C(C)(C)O)nc3)cc2n1Cc1cc(NCc2cccnc2)ccc1Cl [Example 53, 1-(2-Chloro-5-((pyridin-3-ylmethyl)amino)benzyl)-6-(2-(2-hydroxypropan-2-yl)pyrimidin-5-yl)-2-methyl-1H-indazol-3(2H)-one] | 1000 to 10000 nM
COc1ncc(-c2ccc3c(=O)n(C)n(Cc4ccccc4OC(F)F)c3c2)cn1 [Example 5.4] | 1000 to 10000 nM

Now from value to compound:

IC50 | Compound
< 1000 nM | CC(=O)N1CCN(c2ncc(-c3ccc4c(=O)n(C)n(Cc5nc(CC#N)ccc5C(F)(F)F)c4c3)cn2)C[C@H]1C [Example 61, (R)-2-(6-((6-(2-(4-Acetyl-3-methylpiperazin-1-yl)pyrimidin-5-yl)-2-methyl-3-oxo-2,3-dihydro-1H-indazol-1-yl)methyl)-5-(trifluoromethyl)pyridin-2-yl)acetonitrile]
1000 to 10000 nM | Cc1cccc(C(C)n2c3cc(-c4cnc(N5CCN(C(=O)CO)[C@H](C)C5)nc4)ccc3c(=O)n2C)n1 (stereo partly shown) [Example 24.2]
1000 to 10000 nM | Cn1c(=O)c2ccc(-c3cnc(N4CCOCC4)nc3)cc2n1-c1cc(Cl)ccc1Cl [Example 12.1]
1000 to 10000 nM | Cn1c(=O)c2cc(F)c(-c3cnc(C(C)(C)O)nc3)cc2n1Cc1cc(CC#N)ccc1OC(F)F [Example 100, 2-(4-(Difluoromethoxy)-3-((5-fluoro-6-(2-(2-hydroxypropan-2-yl)pyrimidin-5-yl)-2-methyl-3-oxo-2,3-dihydro-1H-indazol-1-yl)methyl)phenyl)acetonitrile]
1000 to 10000 nM | COC(=O)NCc1ccc(OC(F)F)c(Cn2c3cc(-c4cnc(C(C)(C)O)nc4)ccc3c(=O)n2C)c1 [Example 26.3]
< 1000 nM | Cc1ccc(C)c(Cn2c3cc(-c4cnc(N5CCOCC5)nc4)ccc3c(=O)n2C)c1 [Example 1.19]
< 1000 nM | Cc1ccc(OC(F)F)c(Cn2c3cc(-c4cnn5c(C(C)O)cnc5c4)ccc3c(=O)n2C)c1 (racemic) [Example 106, 1-(2-(Difluoromethoxy)-5-methylbenzyl)-6-(3-(1-hydroxyethyl)imidazo[1,2-b]pyridazin-7-yl)-2-methyl-1H-indazol-3(2H)-one]
< 1000 nM | Cc1ccc(OC(F)F)c(Cn2c3cc(-c4cnn5c([C@@H](C)O)cnc5c4)ccc3c(=O)n2C)c1 (single isomer, unassigned) [Example 107]
< 1000 nM | Cn1c(=O)c2ccc(-c3cnc(C(C)(C)O)nc3)cc2n1Cc1cc(Cc2ccn[nH]2)ccc1OC(F)F [Example #133, 1-(5-((1H-Pyrazol-5-yl)methyl)-2-(difluoromethoxy)benzyl)-6-(2-(2-hydroxypropan-2-yl)pyrimidin-5-yl)-2-methyl-1H-indazol-3(2H)-one]
< 1000 nM | C[C@@H]1CN(c2ncc(-c3ccc4c(=O)n(C)n(Cc5ccccc5OC(F)F)c4c3)cn2)CCN1C(=O)[C@H](O)CO [Example 39, 1-(2-(Difluoromethoxy)benzyl)-6-(2-((R)-4-((R)-2,3-dihydroxypropanoyl)-3-methylpiperazin-1-yl)pyrimidin-5-yl)-2-methyl-1H-indazol-3(2H)-one]
1000 to 10000 nM | Cn1c(=O)c2ccc(-c3cnc(C4(O)CCN(C(=O)CN)CC4)nc3)cc2n1Cc1ccccc1OC(F)F [Example 14.3]
< 1000 nM | Cn1c(=O)c2ccc(-c3cnc(N4CCN5C(=O)OC[C@H]5C4)nc3)cc2n1Cc1cc(CC#N)ccc1OC(F)F [Example 79, (R)-2-(4-(Difluoromethoxy)-3-((2-methyl-3-oxo-6-(2-(3-oxotetrahydro-1H-oxazolo[3,4-a]pyrazin-7(3H)-yl)pyrimidin-5-yl)-2,3-dihydro-1H-indazol-1-yl)methyl)phenyl)acetonitrile]
< 1000 nM | [2H]C([2H])([2H])n1c(=O)c2ccc(-c3cnc(N4CCN(C(=O)CO)[C@H](C)C4)nc3)cc2n1Cc1cc(C)ccc1OC(F)F [Example 62, (R)-1-(2-(Difluoromethoxy)-5-methylbenzyl)-6-(2-(4-(2-hydroxyacetyl)-3-methylpiperazin-1-yl)pyrimidin-5-yl)-2-(methyl-d3)-1H-indazol-3(2H)-one]
< 1000 nM | C[C@@H]1CN(c2ncc(-c3ccc4c(=O)n(C)n(Cc5ccccc5Cl)c4c3F)cn2)CCN1C(=O)CO [Example 24.5]
< 1000 nM | Cc1c(-c2cnc(N3CCN(C(=O)CO)[C@H](C)C3)nc2)ccc2c(=O)n(C)n(Cc3ccccc3OC(F)F)c12 [Example 24.12]
< 1000 nM | CC(=O)N1CCN(c2ncc(-c3ccc4c(=O)n(C)n(Cc5cc(C)ccc5OC(F)F)c4c3)cn2)C[C@@H]1C (single isomer, unassigned) [Example 55]
< 1000 nM | CC(=O)N1CCN(c2ncc(-c3ccc4c(=O)n(C)n(Cc5cc(C)ccc5OC(F)F)c4c3)cn2)[C@@H](C)C1 [Example 22.2]
< 1000 nM | Cc1ccc(OC(F)F)c(Cn2c3cc(-c4cnc(N5CCN(C(=O)CO)C[C@H]5C)nc4)c(F)cc3c(=O)n2C)c1 [Example 17.3]
< 1000 nM | Cc1ccc(OC(F)F)c(Cn2c3cc(-c4cnc(N5CCN(C(=O)COC(=O)[C@@H](N)C(C)C)[C@H](C)C5)nc4)ccc3c(=O)n2C)c1 [Example 14.14]
< 1000 nM | CC(=O)N1CCN(c2ncc(-c3ccc4c(=O)n(C)n(Cc5cc(C)ccc5OC(F)F)c4c3)cn2)C[C@H]1CO [Example 22.10]
< 1000 nM | Cn1c(=O)c2ccc(-c3cnc(N4CCOCC4)nc3)cc2n1Cc1ccccc1OC(F)F [Example 5, 1-(2-(Difluoromethoxy)benzyl)-2-methyl-6-(2-morpholinopyrimidin-5-yl)-1H-indazol-3(2H)-one]

Same assay, conditions: read-out: TNF IC50

IC50 | Compound
1000 to 10000 nM | C[C@H](O)CNc1ccc(Cl)c(Cn2c3cc(-c4cnc(C(C)(C)O)nc4)ccc3c(=O)n2C)c1 [Example 30.1]

From patent US10160748B2 (AbbVie Inc., priority 2015, dated 2018)
